Here are results for 6 compounds from patent EP1143981B1, “USE OF N-GLYCOLNEURAMINIC ACID AND ITS DERIVATIVES FOR THE MANUFACTURE OF A MEDICAMENT FOR THE TREATMENT OF HIV INFECTIONS” (Glukor, Inc., priority 1998, dated 2000).

Holding throughout (format): cell-based
Test [1] relates to HIV-1 IIIB. The test is described as follows: HIV-1 P24 output, repeat with stored solutions, 3 hours infection. The note with it: day 6. As to the method:
The test was repeated using test solutions stored at 4°C. In this experiment, the dilutions were mixed with HIV-1 IIIB virus at the time of infecting the activated human PBMCs for 3 hours. The cells then were washed and incubated in triplicate wells (1x10^3 cells/well) in the presence of the indicated dilution of the test solution. One half media changes included the test solution dilutions. Conditioned media were tested for P24 output by the antigen capture assay on day 6. Results are shown in Table 10 and are presented as the inhibition % of control (no carbohydrate added).

The subject of test [2] is HIV-1III B. Put plainly: HIV-1 P24 output, test solution mixed with virus, PBMCs infected overnight. The note with it: Dilution 1:10 of 5mg/ml solution, day 9.
Test [3] deals with HIV-1 IIIB. The test is described as follows: HIV-1 P24 output, test solutions added post infection. On the procedure: In addition, a similar experiment was performed, except that test solutions were added post infection, at the time of plating into the triplicate wells.
For test [4], the system named is HIV-1III B. The test is described as follows: HIV-1 P24 output, test solution mixed with virus, PBMCs infected overnight. The note with it: day 9. On the procedure: Example 4-Specificity of Inhibition: Research grade purified d-Galactose (CAT# g404, lot 117H00431, FW 180.2, Sigma Chemical Co., St. Louis, MO) was dissolved in saline at a concentration of 5mg/ml. The solution was allowed to stand at room temperature for 15 minutes and mixed by vortex until the galactose was completely dissolved. The galactose solution was divided into two equal aliquots. Stabilizing solution (0.1 ml) was added to one aliquot, then vortexed and incubated at room temperature for 30 minutes. After mixing again, the mixture was centrifuged at 1500g for 30 minutes and the supernatant was filtered through a 0.2µm filter and transferred to a sterile 15 ml tube. The solution was sterilized by gamma radiation (2.5 mega RADs) with 15 minutes exposure. The aliquot without the stabilizing solution was labeled "1A" and the aliquot containing the stabilized solution was labeled "1B". […] Each of the test solutions were diluted 1:20 1:40,1:80, and 1:160 in saline. Control solutions were water.
One ml of each of the dilutions of the test solution or control was mixed with an equal volume of HIV-1III B (~50 TCID50 /2x10^5 cells) to infect activated human PBMCs overnight at 37°C (3x10^5 cells/dilution). HIV-1III B is a laboratory-adapted strain. The cells then were washed and placed in culture media containing the indicated dilution of the test solution in triplicate wells (1x10^3 cells per well, ½ medium changes with media containing the indicated dilutions of test solution were made at ~3 day intervals). The conditioned media were tested for HIV-1 P24 output on day 9 using the DuPont P24 assay kit. The control was infected PBMCs in the absence of test solutions. Results are shown in Table 9 and are measured as the Inhibition% of the control. […]

The test system of the next test is X4 strain LAI/IIIB. The test is described as follows: RT activity in infected PBMCs over 20 days post-infection. On the procedure: Reverse Transcriptase Activity Assay: A microtiter based reverse transcriptase (RT) reaction was utilized as described by Buckheit et al., (1991), AIDS Research and Human Retroviruses, 7:295-302. Tritiated thymidine triphosphate (^3H-TTP) was suspended in distilled H2O at 5 Ci/mL. Poly rA and oligo dT were prepared as a stock solution which was kept at -20°C. RT reaction buffer was prepared fresh on a daily basis and contained 125 µL 1M EGTA, 125 µL dH2O, 110 µL 10% SDS, 50 µL 1M Tris (pH 7.4), 50 µL 1M DTT, and 40 µL 1M MgCl2. These three solutions were mixed together in a ratio of 2 parts ^3H-TTP, 1 part poly rA:oligo dT, and 1 part reaction buffer. Ten microliters of this reaction mixture were placed in a round bottom microtiter plate and 15 µL of virus containing supernatant were added and mixed. The plate was incubated at 37°C in a water bath with a solid support to prevent submersion of the plate and incubated for 60 minutes. After the incubation period, the reaction volume was spotted onto pieces of DE81 paper, washed 5 times for 5 minutes each in a 5% sodium phosphate buffer, 2 times for 1 minute each in distilled water, 2 times for 1 minute each in 70% ethanol, and then dried. Opti-Fluor-O (Packard) was added to each sample and incorporated radioactivity was quantified utilizing a Wallac 1450 MicroBeta Plus liquid scintillation counter. Plates were screened with tetrazolium dye staining as described above.
PBMCs were treated with dilutions of LUKOR of 1:4, 1:20, 1:100, 1:500, or 1:2500, or concentrations ofN-glycolylneuraminic acid or N-acetylneuraminic acid of 0.4, 1.2, 3.6, 11, or 33µg/ml. No carbohydrates were added to the control sample. RT activity was determined at 3, 6, 9,13, 17, and 20 days post-infection (PI) with X4 strain LAI/IIIB.

The mark [5] stands for this setting: Dilution 1:10, solutions stored at 4°C.
[6] abbreviates: Dilution 1:20, solutions stored at 4°C.
Where [7] appears, read: Dilution 1:40, solutions stored at 4°C.
[8] abbreviates: Dilution 1:80, solutions stored at 4°C.
The mark [9] stands for this setting: Dilution 1:160, solutions stored at 4°C.
[10] abbreviates: Dilution 1:10, added post infection.
The mark [11] stands for this setting: Dilution 1:20, added post infection.
The mark [12] stands for this setting: Dilution 1:20, repeat with further dilutions (Table 12).
[13] abbreviates: Dilution 1:40, added post infection.
[14] abbreviates: Dilution 1:80, added post infection.
Where [15] appears, read: Dilution 1:100, repeat with further dilutions (Table 12).
[16] abbreviates: Dilution 1:160, added post infection.
Where [17] appears, read: Dilution 1:1000, repeat with further dilutions (Table 12).

The term inhibition denotes the relative decrease from the control value, in per cent. Turning to `O=C(CO)N[C@H]1[C@H]([C@H](O)[C@H](O)CO)OC(O)(C(=O)O)C[C@@H]1O` (single isomer, unassigned) [2A, N-glycolylneuraminic acid], the “Inhibition % of Control” value in the test on HIV-1 IIIB [1] (setting [5]) turned out to be 96%; in the test on HIV-1 IIIB [1] (setting [6]) it was 78%; in the test with HIV-1 IIIB [1] (setting [7]), 62%; in the test on HIV-1 IIIB [1] (setting [8]), 47%; in the test on HIV-1 IIIB [1] (setting [9]), 17%; with HIV-1 IIIB [3] (setting [10]) it was 95%. For the same compound, the “Inhibition % of Control” value was found to be 75% in the test with HIV-1 IIIB [3] (setting [11]); 88% with HIV-1 IIIB [3] (setting [12]); 66% in the test with HIV-1 IIIB [3] (setting [13]); 30% with HIV-1 IIIB [3] (setting [14]); 55% in the test with HIV-1 IIIB [3] (setting [15]); 16% in the test on HIV-1 IIIB [3] (setting [16]). Moreover, the “Inhibition % of Control” value with HIV-1 IIIB [3] (setting [17]) was 7%. For the same compound, the inhibition at 5000 µg/mL (stock) in the test with HIV-1III B [2] (Human immunodeficiency virus 1, PBMC, 216 h, read-out: P24 output, Inhibition% of the control) is 94%. Besides, the results for the “P24 output, Inhibition% of the control” value in the test with HIV-1III B [4] (Dilution 1:20) and in the test on HIV-1III B [4] (Dilution 1:40) were 78% and 66%, respectively.

For the compound `O=C(CO)N[C@H]1[C@H]([C@H](O)[C@H](O)CO)OC(O)(C(=O)O)C[C@@H]1O` (single isomer, unassigned) [2B, N-glycolylneuraminic acid], the “Inhibition % of Control” value worked out at 88% in the test with HIV-1 IIIB [1] (setting [5]); 74% in the test with HIV-1 IIIB [1] (setting [6]); 59% in the test on HIV-1 IIIB [1] (setting [7]); 44% in the test with HIV-1 IIIB [1] (setting [8]); 13% in the test with HIV-1 IIIB [1] (setting [9]); 82% in the test with HIV-1 IIIB [3] (setting [10]). In addition, the “Inhibition % of Control” value in the test on HIV-1 IIIB [3] (setting [11]) was determined as 70%; in the test on HIV-1 IIIB [3] (setting [12]) it was 78%; in the test on HIV-1 IIIB [3] (setting [13]) it was 61%; with HIV-1 IIIB [3] (setting [14]), 26%; with HIV-1 IIIB [3] (setting [15]), 42%; in the test with HIV-1 IIIB [3] (setting [16]) it was 15%. Besides, the “Inhibition % of Control” value in the test with HIV-1 IIIB [3] (setting [17]) was determined as 1%. Moreover, the “P24 output, Inhibition% of the control” value worked out at 93% in the test with HIV-1III B [2]; 81% in the test on HIV-1III B [4] (Dilution 1:20); 61% in the test on HIV-1III B [4] (Dilution 1:40); 37% with HIV-1III B [4] (Dilution 1:80); 16% with HIV-1III B [4] (Dilution 1:160).

For `OC[C@H]1O[C@H](O[C@H]2[C@@H](O)[C@@H](CO)OC(O)[C@@H]2O)[C@H](O)[C@@H](O)[C@H]1O` (stereo partly drawn) [3AA, galactose-α 1,3-galactose], the “P24 output, Inhibition% of the control” value is reported as 4.3% in the test on HIV-1III B [2]; 3.6% in the test with HIV-1III B [4] (Dilution 1:20); 2.2% in the test with HIV-1III B [4] (Dilution 1:40); 1.4% with HIV-1III B [4] (Dilution 1:80); 0.4% in the test with HIV-1III B [4] (Dilution 1:160).

As for `CC(=O)N[C@H]1[C@H]([C@H](O)[C@H](O)CO)OC(O)(C(=O)O)C[C@@H]1O` (some centres unmarked) [N-acetylneuraminic acid, reference compound], the “RT Activity” value in the test with X4 strain LAI/IIIB (0.4 µg/ml, 3 days PI) turned out to be 89; in the test with X4 strain LAI/IIIB (0.4 µg/ml, 6 days PI), 129; in the test on X4 strain LAI/IIIB (0.4 µg/ml, 9 days PI) it was 878; with X4 strain LAI/IIIB (0.4 µg/ml, 13 days PI), 2703; in the test on X4 strain LAI/IIIB (0.4 µg/ml, 17 days PI) it was 1615; in the test with X4 strain LAI/IIIB (0.4 µg/ml, 20 days PI), 812. The “RT Activity” value in the test on X4 strain LAI/IIIB (3.6 µg/ml, 3 days PI) is reported as 83; in the test on X4 strain LAI/IIIB (3.6 µg/ml, 6 days PI) it was 508; in the test with X4 strain LAI/IIIB (3.6 µg/ml, 9 days PI), 1902; in the test on X4 strain LAI/IIIB (3.6 µg/ml, 13 days PI), 1892; with X4 strain LAI/IIIB (3.6 µg/ml, 17 days PI), 1260; in the test with X4 strain LAI/IIIB (3.6 µg/ml, 20 days PI) it was 836. In addition, the “RT Activity” value with X4 strain LAI/IIIB (11 µg/ml, 3 days PI) is listed as 43; in the test on X4 strain LAI/IIIB (11 µg/ml, 6 days PI), 75; with X4 strain LAI/IIIB (11 µg/ml, 9 days PI) it was 799; in the test with X4 strain LAI/IIIB (11 µg/ml, 13 days PI), 2047; with X4 strain LAI/IIIB (11 µg/ml, 17 days PI), 2990; with X4 strain LAI/IIIB (11 µg/ml, 20 days PI), 1171. In addition, the “RT Activity” value turned out to be 36 in the test with X4 strain LAI/IIIB (33 µg/ml, 3 days PI); 53 in the test with X4 strain LAI/IIIB (33 µg/ml, 6 days PI); 165 in the test with X4 strain LAI/IIIB (33 µg/ml, 9 days PI); 442 in the test with X4 strain LAI/IIIB (33 µg/ml, 13 days PI); 1273 in the test with X4 strain LAI/IIIB (33 µg/ml, 17 days PI); 1526 with X4 strain LAI/IIIB (33 µg/ml, 20 days PI). Also, the “RT activity in treated cells (summary in words)” value with X4 strain LAI/IIIB (all dilutions/concentrations, 3-20 days PI) is “decreased RT activity was observed only with high concentrations”.

Consider d-Galactose [1A], for which the “P24 output, Inhibition% of the control” value in the test on HIV-1III B [2] is listed as 4%; in the test on HIV-1III B [4] (Dilution 1:20), 5%; in the test with HIV-1III B [4] (Dilution 1:40), 4%; in the test with HIV-1III B [4] (Dilution 1:80), 2%; with HIV-1III B [4] (Dilution 1:160), 2%.

For the compound d-Galactose [1B], the “P24 output, Inhibition% of the control” value was 7% in the test on HIV-1III B [2]; 5% in the test with HIV-1III B [4] (Dilution 1:20); 3% with HIV-1III B [4] (Dilution 1:40); 4% in the test with HIV-1III B [4] (Dilution 1:80); 2% with HIV-1III B [4] (Dilution 1:160).
